Earlier results, collected in patent publication US20080014261A1, “Non-narcotic biphasic release compositions and methods for treatment of coughing, sneezing, rhinorrhea, and/or nasal obstruction” (priority 2006, published 2008).

Conditions: in vivo

- plasma half life: one
SMILES: COc1ccccc1OCC(O)CO (stereo not shown) [Guaifenesin, 3-(2-methoxyphenoxy)-1,2 propanediol]
